Results as given in BindingDB's records for doi:10.1021/jm1005989 (Pfizer, 2010).

Biological target: Beta-2 adrenergic receptor (Homo sapiens, UniProt P07550)
Experiment: Agonist activity at human recombinant beta2 adrenergic receptor expressed in CHO cells assessed as elevation in cAMP level after 1 hr by flashplate method

Sequence of Beta-2 adrenergic receptor (P07550 whole entry): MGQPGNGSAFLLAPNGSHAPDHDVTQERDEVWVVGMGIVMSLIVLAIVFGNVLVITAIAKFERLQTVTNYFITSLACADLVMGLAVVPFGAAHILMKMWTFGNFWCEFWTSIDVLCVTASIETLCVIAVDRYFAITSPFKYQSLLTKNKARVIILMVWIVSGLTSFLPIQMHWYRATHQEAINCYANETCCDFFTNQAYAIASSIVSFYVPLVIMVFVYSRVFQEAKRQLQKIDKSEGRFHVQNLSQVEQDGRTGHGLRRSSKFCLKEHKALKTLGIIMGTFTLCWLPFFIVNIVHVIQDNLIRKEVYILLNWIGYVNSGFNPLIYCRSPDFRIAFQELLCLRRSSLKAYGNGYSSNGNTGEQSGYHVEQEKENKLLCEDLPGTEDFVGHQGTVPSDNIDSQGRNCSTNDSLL

EC50: 0.07 nM
Structure (SMILES): CC(C)(Cc1cccc(CC(=O)NCc2ccc(Cl)c(Cl)c2)c1)NC[C@H](O)c1ccc(O)c(NS(C)(=O)=O)c1 [(R)-N-(3,4-dichlorobenzyl)-2-(3-(2-(2-hydroxy-2-(4-hydroxy-3-(methylsulfonamido)phenyl)ethylamino)-2-methylpropyl)phenyl)acetamide]
